In patent publication US20050137135A1 (priority 2002, published 2005):
“Also recorded” adds a separate entry of the source.

What was measured:
[1] = system: caspase-3 activity in INS-1 (832/13) cells; experiment: Caspase-3 activity induced by glucose deprivation; format: cell-based; conditions: 6 h; 100 nM GIP, 10 µM forskolin
Experimental: (§1) INS-1 cells (clone 832/13) seeded into 6-well plates were serum starved for 12-24 h and subjected to glucose deprivation (RPMI with 0.1% BSA) or treatment with 2 mM streptozotocin (STZ). […] Following treatment, caspase-3 activity was determined after 2, 6, or 24 h according to the manufacturers' protocol (Molecular Probes, Eugene, Oreg., USA). Caspase-3 activity/well was corrected for total protein content using the BCA protein assay (Pierce, Roxford, II, USA).

[2] = system: INS-1 cells (clone 832/13); experiment: Insulin release from INS-1 (832/13) cells; format: cell-based; conditions: 10 nM GIP, 60 minutes, n=3
Description: (§2) Cell passages 45-60 were used.

INS-1 (832/13) cells [3] = experiment: Glucose dependent β-cell proliferation (CYQUANT cell quantification); format: cell-based
Experimental: as §2
Cells were seeded into 96-well plates (5×10^4 cells/well) prior to experimentation. […] Thereafter, cells were washed with KRBH (115 mM NaCl, 4.7 mM KCl, 1.2 mM KH2PO4, 10 mM NaHCO3, 1.28 mM CaCl2, 1.2 mM MgSO4 containing 10 mM HEPES and 0.1% bovine serum albumin, pH 7.4) and frozen at −70° C. until assayed. Cells were quantified using the CYQUANT™ assay system (Molecular Probes, Eugene, Oreg., USA) according to the manufacturers' protocol. Final cell numbers were always greater than the initial number plated in assessing cellular proliferation.

INS-1 (832/13) cells [4] = experiment: Cell survival during glucose deprivation (CYQUANT); format: cell-based
Experimental: as §2
Cells were seeded into 96-well plates (5×10^4 cells/well) prior to experimentation. […] Cells were quantified using the CYQUANT™ assay system (Molecular Probes, Eugene, Oreg., USA) according to the manufacturers' protocol.
Cell survival was assessed in the presence of prolonged glucose deprivation.

[5] = system: caspase-3 activity in INS-1 (832/13) cells; experiment: Caspase-3 activity induced by streptozotocin (STZ); format: cell-based; conditions: added 10 minutes prior to and during a 30 minute STZ exposure
Experimental: as §1

[6] = in vivo; cited from earlier work
[7] = target: T1, rat pancreatic islet (wild type) GIP-receptor stably expressed on CHO-K1 cells (rat) (UniProt P43219); experiment: cell-based or functional assay
T1 sequence (looked up): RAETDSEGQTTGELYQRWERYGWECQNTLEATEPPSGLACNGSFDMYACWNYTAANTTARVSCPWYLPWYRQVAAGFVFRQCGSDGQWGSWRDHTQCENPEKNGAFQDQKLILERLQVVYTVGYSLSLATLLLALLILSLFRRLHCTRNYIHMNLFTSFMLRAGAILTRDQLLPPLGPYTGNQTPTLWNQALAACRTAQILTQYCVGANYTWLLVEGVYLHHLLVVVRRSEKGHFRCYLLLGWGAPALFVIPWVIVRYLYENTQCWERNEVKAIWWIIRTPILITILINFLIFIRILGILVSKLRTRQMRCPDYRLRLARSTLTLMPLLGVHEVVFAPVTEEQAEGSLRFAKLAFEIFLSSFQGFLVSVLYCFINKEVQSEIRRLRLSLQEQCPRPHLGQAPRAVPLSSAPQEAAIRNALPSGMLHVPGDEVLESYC

[8] = target: T1, rat pancreatic islet (wild type) GIP-receptor stably expressed on CHO-K1 cells (rat); experiment: competition with 125I-GIP on intact CHO-K1 cells expressing rat GIP receptor
[9] = target: T1, rat pancreatic islet (wild type) GIP-receptor stably expressed on CHO-K1 cells (rat); experiment: displacement of 125I-GIP from intact CHO-K1 cells expressing rat GIP receptor, 10 µM peptide

Sequence of GIP 15-42OH (peptide) (P09681 66-93): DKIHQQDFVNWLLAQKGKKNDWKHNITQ

Compound	0 mM glucose induced caspase-3 activity [1]	5.5 mM glucose stimulated insulin secretion [2]	potentiation of glucose dependent β-cell proliferation (INS-1 (832/13) cells [3]; 11 mM glucose)	cell proliferation, % of growth in the presence of 5.5 mM glucose (INS-1 (832/13) cells [3]; 11 mM glucose, 100 nM, FIG. 15A)	cell growth, % of that measured in the presence of 5.5 mM glucose (INS-1 (832/13) cells [3]; separate experiment, 100 nM, n=4)	effect on cell survival during glucose deprivation (INS-1 (832/13) cells [4]; 0 mM glucose)	protection against wortmannin-induced cell loss (INS-1 (832/13) cells [4]; n=3, p<0.05)	STZ induced caspase-3 activity [5]	biological half-life [6]	cAMP Production (Fold Basal) at 10 µM [7]	cAMP Production (Fold Basal) at 20 µM [7]	IC50 [8]	% Displacement at 10 µM [9]
CC(=O)N[C@@H](CC(=O)O)C(=O)N[C@@H](CCC(=O)O)C(=O)N[C@H](C(=O)N[C@H](C=O)CC(=O)O)C(C)C [Ac-DEVD-CHO]	completely blocked low glucose activation												
CC[C@H](C)[C@H](NC(=O)[C@H](CO)NC(=O)[C@H](Cc1ccc(O)cc1)NC(=O)[C@H](CC(=O)O)NC(=O)[C@H](CO)NC(=O)[C@@H](NC(=O)[C@H](Cc1ccccc1)NC(=O)[C@@H](NC(=O)CNC(=O)[C@H](CCC(=O)O)NC(=O)[C@H](C)NC(=O)[C@@H](N)Cc1ccc(O)cc1)[C@@H](C)O)[C@@H](C)CC)C(=O)N[C@@H](C)C(=O)N[C@@H](CCSC)C(=O)N[C@@H](CC(=O)O)C(=O)N[C@@H](CCCCN)C(=O)N[C@H](C(=O)N[C@@H](Cc1c[nH]cn1)C(=O)N[C@@H](CCC(N)=O)C(=O)N[C@@H](CCC(N)=O)C(=O)N[C@@H](CC(=O)O)C(=O)N[C@@H](Cc1ccccc1)C(=O)N[C@H](C(=O)N[C@@H](CC(N)=O)C(=O)N[C@@H](Cc1c[nH]c2ccccc12)C(=O)N[C@@H](CC(C)C)C(=O)N[C@@H](CC(C)C)C(=O)N[C@@H](C)C(=O)N[C@@H](CCC(N)=O)C(=O)N[C@@H](CCCCN)C(=O)NCC(=O)N[C@@H](CCCCN)C(=O)N[C@@H](CCCCN)C(=O)N[C@@H](CC(N)=O)C(=O)N[C@@H](CC(=O)O)C(=O)N[C@@H](Cc1c[nH]c2ccccc12)C(=O)N[C@@H](CCCCN)C(=O)N[C@@H](Cc1c[nH]cn1)C(=O)N[C@@H](CC(N)=O)C(=O)N[C@H](C(=O)N[C@H](C(=O)N[C@@H](CCC(N)=O)C(=O)O)[C@@H](C)O)[C@@H](C)CC)C(C)C)[C@@H](C)CC [GIP, glucose-dependent insulinotropic polypeptide]	completely reversed; also recorded: ablates	2.44±0.29 % total insulin secreted	potentiates 11 mM glucose induced cell growth	158±16%	131±7%	promotes INS-1 (832/13) cell survival during glucose deprivation in a concentration-dependent manner	partially protected; also recorded: partially reversed	protect against the pro-apoptotic (caspase-3 activating) effects of STZ completely; also recorded: ablates	~2 min				
GIP 15-42OH (peptide)										1.02 fold basal	1.01 fold basal	1270 nM	83.3%
